Assays:
[1] = target: T1, Muscarinic acetylcholine receptor M2 (Homo sapiens) (UniProt P08172); test: Selectivity interaction (Eurofins-Panlabs panel) EUB0000295b CHRM2; conditions: at 10 µM
T1 sequence (whole entry): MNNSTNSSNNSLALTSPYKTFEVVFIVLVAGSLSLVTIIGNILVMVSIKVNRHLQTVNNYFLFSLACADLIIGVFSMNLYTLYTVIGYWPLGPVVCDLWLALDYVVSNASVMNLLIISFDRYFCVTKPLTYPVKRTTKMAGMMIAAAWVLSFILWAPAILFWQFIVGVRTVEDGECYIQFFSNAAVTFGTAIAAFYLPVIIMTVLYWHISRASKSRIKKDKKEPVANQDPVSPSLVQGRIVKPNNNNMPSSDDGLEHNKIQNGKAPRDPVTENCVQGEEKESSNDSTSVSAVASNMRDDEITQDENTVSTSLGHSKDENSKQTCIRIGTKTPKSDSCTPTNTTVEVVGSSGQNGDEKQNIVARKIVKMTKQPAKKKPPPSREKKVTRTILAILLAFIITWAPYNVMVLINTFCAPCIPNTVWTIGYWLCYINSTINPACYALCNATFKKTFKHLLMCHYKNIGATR

[2] = target: T2, Phosphatidylinositol 4,5-bisphosphate 3-kinase catalytic subunit delta isoform (Homo sapiens) (UniProt O00329); test: Selectivity interaction (KinomeScan (DiscoverX)) EUB0000295b PIK3CD; conditions: at 1 µM
T2 sequence (whole entry): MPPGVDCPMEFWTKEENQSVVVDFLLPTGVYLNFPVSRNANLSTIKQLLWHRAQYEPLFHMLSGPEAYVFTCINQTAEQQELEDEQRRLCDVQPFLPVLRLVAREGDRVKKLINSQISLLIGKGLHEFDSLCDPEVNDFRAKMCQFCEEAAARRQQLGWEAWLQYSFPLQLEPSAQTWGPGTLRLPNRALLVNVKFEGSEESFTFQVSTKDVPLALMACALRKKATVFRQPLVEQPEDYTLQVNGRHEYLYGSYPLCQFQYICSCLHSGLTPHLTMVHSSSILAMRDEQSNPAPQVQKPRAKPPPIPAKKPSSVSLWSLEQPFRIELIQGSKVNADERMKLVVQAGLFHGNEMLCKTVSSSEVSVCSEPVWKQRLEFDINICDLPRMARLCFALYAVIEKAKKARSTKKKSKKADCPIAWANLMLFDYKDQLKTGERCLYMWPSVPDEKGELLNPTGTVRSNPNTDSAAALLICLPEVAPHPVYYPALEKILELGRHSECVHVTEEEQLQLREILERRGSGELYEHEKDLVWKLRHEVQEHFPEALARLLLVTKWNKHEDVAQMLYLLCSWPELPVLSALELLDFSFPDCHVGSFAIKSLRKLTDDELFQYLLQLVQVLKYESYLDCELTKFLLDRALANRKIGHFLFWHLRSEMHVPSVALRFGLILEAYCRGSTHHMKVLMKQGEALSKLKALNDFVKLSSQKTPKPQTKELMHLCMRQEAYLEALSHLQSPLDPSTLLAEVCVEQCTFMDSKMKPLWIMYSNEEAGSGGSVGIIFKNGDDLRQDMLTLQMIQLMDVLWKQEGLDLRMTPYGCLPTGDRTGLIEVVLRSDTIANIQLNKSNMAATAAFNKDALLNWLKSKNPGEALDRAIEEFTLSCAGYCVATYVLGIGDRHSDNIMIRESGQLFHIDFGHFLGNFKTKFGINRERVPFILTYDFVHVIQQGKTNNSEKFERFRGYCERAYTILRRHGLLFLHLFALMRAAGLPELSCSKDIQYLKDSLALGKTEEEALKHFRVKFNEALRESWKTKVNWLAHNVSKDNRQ

[3] = target: SRSF protein kinase 2 (Homo sapiens) (UniProt P78362); test: Selectivity interaction (KinomeScan (DiscoverX)) EUB0000295b SRPK2; conditions: at 1 µM
[4] = target: T3, Tyrosine-protein kinase JAK3 (Homo sapiens) (UniProt P52333); conditions: at 500 nM
T3 sequence (whole entry): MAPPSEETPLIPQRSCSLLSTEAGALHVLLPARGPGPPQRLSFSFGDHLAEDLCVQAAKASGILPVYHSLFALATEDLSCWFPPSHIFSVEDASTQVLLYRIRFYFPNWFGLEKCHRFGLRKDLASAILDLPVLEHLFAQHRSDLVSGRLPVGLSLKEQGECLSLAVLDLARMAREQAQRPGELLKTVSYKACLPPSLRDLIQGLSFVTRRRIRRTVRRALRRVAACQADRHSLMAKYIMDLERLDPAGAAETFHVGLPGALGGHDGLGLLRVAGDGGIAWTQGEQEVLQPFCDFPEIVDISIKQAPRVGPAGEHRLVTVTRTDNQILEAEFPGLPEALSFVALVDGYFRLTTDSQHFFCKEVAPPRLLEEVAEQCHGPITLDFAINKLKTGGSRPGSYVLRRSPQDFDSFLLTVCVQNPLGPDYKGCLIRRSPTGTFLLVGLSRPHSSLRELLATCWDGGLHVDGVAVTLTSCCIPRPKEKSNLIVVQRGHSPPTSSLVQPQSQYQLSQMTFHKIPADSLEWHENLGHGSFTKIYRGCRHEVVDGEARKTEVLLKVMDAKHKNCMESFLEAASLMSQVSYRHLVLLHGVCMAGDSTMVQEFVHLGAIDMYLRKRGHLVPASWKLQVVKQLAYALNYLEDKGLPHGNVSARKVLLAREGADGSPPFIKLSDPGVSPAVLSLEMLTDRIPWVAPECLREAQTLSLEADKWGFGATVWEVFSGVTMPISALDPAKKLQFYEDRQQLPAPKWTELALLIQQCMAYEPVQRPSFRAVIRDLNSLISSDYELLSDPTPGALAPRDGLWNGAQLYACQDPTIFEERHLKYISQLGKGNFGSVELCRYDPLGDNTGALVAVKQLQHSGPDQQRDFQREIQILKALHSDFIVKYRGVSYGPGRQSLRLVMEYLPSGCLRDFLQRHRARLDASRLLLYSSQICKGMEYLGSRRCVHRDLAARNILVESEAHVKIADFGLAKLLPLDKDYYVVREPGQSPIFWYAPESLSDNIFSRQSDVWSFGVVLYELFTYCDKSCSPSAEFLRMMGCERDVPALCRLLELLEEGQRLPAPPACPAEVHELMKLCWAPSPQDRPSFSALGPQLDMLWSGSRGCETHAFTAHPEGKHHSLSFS

[5] = target: ALK tyrosine kinase receptor (Homo sapiens, UniProt Q9UM73); test: Selectivity interaction (KinomScan Ambit) EUB0000622a ALK; conditions: at 10 µM
ALK tyrosine kinase receptor, sequence (Q9UM73 19-1620 limits assumed): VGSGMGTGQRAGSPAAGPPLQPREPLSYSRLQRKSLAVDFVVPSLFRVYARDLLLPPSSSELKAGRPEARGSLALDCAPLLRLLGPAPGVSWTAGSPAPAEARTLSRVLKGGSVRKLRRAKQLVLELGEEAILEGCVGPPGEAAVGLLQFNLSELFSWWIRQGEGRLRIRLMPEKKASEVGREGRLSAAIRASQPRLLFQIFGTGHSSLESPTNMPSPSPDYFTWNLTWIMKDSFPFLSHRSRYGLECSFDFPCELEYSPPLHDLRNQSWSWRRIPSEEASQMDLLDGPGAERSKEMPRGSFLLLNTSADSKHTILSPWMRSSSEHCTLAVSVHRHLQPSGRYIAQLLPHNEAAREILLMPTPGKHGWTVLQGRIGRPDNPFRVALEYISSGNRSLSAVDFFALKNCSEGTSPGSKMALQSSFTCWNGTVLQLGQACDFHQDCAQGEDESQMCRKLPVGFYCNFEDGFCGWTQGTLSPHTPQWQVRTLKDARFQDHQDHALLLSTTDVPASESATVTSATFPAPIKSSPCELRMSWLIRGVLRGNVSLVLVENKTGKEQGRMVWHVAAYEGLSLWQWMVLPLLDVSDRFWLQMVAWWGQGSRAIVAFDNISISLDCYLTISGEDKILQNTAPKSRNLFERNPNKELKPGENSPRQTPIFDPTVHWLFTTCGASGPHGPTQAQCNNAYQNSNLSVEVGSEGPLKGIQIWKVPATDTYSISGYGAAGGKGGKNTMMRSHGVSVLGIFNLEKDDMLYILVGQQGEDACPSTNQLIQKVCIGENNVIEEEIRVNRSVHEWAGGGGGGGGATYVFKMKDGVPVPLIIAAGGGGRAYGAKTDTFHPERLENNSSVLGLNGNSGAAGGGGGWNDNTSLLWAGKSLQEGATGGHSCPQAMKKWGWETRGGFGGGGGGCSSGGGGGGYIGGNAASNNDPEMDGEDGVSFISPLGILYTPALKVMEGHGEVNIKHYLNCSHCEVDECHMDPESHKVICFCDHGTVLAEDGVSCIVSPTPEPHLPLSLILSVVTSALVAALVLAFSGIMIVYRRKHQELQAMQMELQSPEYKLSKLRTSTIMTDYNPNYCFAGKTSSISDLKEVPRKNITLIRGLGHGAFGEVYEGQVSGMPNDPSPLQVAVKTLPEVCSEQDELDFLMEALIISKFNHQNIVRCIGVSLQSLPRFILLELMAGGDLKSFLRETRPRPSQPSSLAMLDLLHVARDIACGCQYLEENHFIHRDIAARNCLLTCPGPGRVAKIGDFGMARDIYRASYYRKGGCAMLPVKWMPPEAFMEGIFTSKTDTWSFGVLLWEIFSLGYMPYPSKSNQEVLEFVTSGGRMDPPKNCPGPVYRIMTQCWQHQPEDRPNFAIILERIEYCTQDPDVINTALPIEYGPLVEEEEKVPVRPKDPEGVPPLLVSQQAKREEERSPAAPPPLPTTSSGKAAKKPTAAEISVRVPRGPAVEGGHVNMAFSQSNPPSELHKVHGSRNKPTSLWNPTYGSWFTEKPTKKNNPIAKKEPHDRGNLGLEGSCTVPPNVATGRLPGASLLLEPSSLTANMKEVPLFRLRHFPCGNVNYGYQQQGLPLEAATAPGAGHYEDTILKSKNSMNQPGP

[6] = target: Myosin light chain kinase, smooth muscle (Homo sapiens) (UniProt Q15746); test: Selectivity interaction (KinomScan Ambit) EUB0000622a MYLK; conditions: at 10 µM
[7] = tested on: T4, Receptor-type tyrosine-protein kinase FLT3 (Homo sapiens), P36888 [D835Y]; test: Selectivity interaction (KinomScan Ambit) EUB0000622a FLT3; conditions: at 10 µM
T4 sequence (whole entry): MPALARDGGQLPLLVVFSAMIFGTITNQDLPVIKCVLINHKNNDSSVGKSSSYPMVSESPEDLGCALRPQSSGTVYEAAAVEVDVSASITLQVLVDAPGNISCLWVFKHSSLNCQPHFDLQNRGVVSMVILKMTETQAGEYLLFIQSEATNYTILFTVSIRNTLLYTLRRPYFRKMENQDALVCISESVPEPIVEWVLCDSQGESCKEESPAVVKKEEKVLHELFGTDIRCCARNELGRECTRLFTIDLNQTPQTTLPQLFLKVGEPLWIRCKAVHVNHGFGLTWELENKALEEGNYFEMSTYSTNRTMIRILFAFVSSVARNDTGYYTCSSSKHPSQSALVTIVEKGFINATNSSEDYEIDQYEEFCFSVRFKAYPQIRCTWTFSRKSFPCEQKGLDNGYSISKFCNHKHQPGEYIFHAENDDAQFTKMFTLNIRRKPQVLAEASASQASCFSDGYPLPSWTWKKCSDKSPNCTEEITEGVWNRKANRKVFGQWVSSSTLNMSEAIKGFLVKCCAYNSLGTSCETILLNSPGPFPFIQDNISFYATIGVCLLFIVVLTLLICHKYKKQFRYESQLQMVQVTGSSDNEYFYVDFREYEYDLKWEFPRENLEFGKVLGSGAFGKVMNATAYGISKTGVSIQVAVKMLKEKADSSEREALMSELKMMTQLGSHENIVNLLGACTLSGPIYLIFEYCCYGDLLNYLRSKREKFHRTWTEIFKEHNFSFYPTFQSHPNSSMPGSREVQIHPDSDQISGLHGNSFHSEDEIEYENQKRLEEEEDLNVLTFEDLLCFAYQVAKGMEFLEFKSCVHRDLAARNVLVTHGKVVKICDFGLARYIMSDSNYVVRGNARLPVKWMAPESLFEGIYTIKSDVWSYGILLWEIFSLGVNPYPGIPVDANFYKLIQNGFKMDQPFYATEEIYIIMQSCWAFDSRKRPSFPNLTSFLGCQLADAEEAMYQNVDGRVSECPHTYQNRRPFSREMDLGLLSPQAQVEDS

[8] = target: Tyrosine-protein kinase Fyn (Homo sapiens, UniProt P06241); test: Selectivity interaction (HotSpot assay platform (Reaction Biology)) EUB0000632a FYN; conditions: at 1 µM
Tyrosine-protein kinase Fyn, sequence (P06241 2-537 limits assumed): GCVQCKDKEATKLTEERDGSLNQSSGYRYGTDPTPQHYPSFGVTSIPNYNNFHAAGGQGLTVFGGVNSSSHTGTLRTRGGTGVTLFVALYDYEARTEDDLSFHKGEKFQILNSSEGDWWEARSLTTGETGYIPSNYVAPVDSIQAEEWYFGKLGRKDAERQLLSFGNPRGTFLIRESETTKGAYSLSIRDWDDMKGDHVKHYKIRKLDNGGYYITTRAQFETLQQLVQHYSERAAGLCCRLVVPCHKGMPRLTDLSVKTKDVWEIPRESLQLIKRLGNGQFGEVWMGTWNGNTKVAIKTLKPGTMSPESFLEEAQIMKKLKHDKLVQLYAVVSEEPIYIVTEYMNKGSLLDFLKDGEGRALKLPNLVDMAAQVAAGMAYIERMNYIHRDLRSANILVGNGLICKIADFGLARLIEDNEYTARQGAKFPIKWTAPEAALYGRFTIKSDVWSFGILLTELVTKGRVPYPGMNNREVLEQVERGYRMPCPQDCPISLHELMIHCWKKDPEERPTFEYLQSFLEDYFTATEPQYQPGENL

[9] = target: Protein-tyrosine kinase 6 (Homo sapiens) (UniProt Q13882); test: Selectivity interaction (HotSpot assay platform (Reaction Biology)) EUB0000632a PTK6; conditions: at 1 µM
[10] = target: Vascular endothelial growth factor receptor 2 (Homo sapiens, UniProt P35968); test: Selectivity interaction (HotSpot assay platform (Reaction Biology)) EUB0000632a KDR; conditions: at 1 µM
[11] = target: Tyrosine-protein kinase ABL1 (Homo sapiens, UniProt P00519); test: Selectivity interaction (HotSpot assay platform (Reaction Biology)) EUB0000632a ABL1; conditions: at 1 µM
Tyrosine-protein kinase ABL1, sequence (P00519 whole entry): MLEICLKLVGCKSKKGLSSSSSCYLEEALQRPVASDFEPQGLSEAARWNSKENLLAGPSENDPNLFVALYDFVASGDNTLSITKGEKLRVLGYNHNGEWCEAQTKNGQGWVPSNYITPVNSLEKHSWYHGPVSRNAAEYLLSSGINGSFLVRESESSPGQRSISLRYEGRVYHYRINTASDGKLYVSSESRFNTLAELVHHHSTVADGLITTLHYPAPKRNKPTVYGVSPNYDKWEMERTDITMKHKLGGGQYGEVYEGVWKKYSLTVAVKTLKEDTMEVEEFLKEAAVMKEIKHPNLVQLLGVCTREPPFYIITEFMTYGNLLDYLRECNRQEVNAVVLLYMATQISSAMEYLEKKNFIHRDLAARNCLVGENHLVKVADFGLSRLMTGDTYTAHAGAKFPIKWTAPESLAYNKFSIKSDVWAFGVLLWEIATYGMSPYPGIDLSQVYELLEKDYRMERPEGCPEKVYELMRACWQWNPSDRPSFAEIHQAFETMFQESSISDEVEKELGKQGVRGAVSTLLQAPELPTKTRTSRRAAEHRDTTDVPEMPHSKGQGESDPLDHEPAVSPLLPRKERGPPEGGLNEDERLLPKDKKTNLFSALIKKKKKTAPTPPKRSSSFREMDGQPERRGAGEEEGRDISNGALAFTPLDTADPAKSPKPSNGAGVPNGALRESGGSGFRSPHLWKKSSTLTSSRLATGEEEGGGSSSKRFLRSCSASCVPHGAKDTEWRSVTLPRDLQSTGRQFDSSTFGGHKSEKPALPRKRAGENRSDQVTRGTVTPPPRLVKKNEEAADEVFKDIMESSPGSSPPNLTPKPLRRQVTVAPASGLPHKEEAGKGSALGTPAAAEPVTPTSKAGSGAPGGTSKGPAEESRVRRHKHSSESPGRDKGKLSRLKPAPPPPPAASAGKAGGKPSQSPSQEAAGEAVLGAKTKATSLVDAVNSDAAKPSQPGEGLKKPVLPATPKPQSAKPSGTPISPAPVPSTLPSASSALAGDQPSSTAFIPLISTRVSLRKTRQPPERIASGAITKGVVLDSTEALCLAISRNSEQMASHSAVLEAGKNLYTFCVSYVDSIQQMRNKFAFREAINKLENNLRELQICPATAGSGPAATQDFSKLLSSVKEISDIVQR

[12] = target: 5-hydroxytryptamine receptor 1A (Homo sapiens) (UniProt P08908); test: Selectivity interaction (CEREP ExpressProfile selectivity/specificity profile (human recombinant receptors)) EUB0000213bCl HTR1A; conditions: at 10 µM
5-hydroxytryptamine receptor 1A (Homo sapiens), sequence (P08908 whole entry): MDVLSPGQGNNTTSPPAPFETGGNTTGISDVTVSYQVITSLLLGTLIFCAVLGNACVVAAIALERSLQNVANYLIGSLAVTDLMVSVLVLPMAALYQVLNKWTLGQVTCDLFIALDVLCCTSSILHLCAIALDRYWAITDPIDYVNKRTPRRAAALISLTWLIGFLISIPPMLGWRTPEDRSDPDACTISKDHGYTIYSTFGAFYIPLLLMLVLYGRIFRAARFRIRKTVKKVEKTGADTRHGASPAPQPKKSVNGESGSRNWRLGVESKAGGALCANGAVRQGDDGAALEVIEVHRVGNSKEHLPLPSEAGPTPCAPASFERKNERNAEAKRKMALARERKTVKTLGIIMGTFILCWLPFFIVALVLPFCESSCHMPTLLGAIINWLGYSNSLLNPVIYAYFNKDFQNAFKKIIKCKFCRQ

[13] = target: Sodium-dependent serotonin transporter (Homo sapiens) (UniProt P31645); test: Selectivity interaction (CEREP ExpressProfile selectivity/specificity profile (human recombinant receptors)) EUB0000213bCl SLC6A4; conditions: at 10 µM
Sodium-dependent serotonin transporter (Homo sapiens), sequence (P31645 whole entry, looked up): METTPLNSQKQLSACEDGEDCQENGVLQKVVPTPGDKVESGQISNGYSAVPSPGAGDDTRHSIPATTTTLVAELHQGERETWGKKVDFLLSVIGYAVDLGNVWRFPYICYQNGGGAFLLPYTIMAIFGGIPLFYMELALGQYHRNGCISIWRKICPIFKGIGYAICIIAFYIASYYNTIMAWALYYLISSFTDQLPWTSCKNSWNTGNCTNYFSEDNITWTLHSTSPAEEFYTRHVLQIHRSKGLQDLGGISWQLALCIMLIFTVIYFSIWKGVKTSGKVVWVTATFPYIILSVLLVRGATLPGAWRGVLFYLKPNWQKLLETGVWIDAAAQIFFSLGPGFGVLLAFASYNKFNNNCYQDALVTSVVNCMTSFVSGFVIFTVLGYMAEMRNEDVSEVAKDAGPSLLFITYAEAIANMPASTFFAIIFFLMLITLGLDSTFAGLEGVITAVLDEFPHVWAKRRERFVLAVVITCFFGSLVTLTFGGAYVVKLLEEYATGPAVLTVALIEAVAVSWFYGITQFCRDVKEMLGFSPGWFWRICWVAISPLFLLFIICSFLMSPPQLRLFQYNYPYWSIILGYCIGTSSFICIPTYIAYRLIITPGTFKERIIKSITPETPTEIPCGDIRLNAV

[14] = target: Sodium-dependent dopamine transporter (Homo sapiens, UniProt Q01959); test: Selectivity interaction (CEREP ExpressProfile selectivity/specificity profile (human recombinant receptors)) EUB0000213bCl SLC6A3; conditions: at 10 µM
Sodium-dependent dopamine transporter, sequence (Q01959 whole entry): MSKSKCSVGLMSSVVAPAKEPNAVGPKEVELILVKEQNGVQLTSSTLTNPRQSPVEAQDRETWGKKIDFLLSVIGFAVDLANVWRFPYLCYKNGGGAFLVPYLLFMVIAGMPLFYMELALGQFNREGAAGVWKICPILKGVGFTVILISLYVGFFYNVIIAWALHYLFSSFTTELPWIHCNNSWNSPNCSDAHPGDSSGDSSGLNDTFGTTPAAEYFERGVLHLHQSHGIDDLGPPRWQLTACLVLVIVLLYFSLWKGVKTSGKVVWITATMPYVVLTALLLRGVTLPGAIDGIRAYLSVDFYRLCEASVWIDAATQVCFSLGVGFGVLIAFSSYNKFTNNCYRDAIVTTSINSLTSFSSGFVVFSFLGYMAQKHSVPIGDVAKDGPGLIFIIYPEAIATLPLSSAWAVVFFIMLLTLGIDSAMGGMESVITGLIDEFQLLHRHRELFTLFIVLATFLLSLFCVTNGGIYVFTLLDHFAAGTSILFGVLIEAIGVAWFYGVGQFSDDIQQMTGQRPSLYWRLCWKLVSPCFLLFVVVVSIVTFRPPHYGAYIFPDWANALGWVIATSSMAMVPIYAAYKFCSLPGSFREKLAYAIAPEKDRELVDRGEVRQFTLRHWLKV

CC(=O)N1CCC(c2ccc(C(=O)NC(=N)N)cc2C(F)(F)F)CC1
% of inhibition [1]: 67% | % of control [2]: 34% | % of control [3]: 0%

CN(C)C(=O)/C(C#N)=C/c1ccc(-c2nc3cnc4[nH]ccc4c3n2C2CCCCC2)o1
% of inhibition [4]: 97%

O=C(Nc1cccnc1)c1cc(-c2ccnc(F)c2)ccc1OCc1ccccc1
% of control [5]: < 50% | % of control [6]: < 50% | % of control [7]: < 50%

CC(C)S(=O)(=O)c1ccc2nccc(Nc3ccc4scnc4c3)c2c1
% of inhibition [8]: 18% | % of inhibition [9]: 13% | % of inhibition [10]: 17% | % of inhibition [11]: 12%

c1ccc([C@@H]2C[C@H]2NC2CCNCC2)cc1
% of inhibition [12]: 49% | % of inhibition [13]: 74% | % of inhibition [14]: 39%

Source: ChEMBL document CHEMBL5212743, “Selectivity Literature for EUbOPEN Chemogenomics Library wave 3” (2023)
